The values that follow come from PMC7939384, “In crystallo screening for proline analog inhibitors of the proline cycle enzyme PYCR1” (The Journal of Biological Chemistry, 2021).

The target of test [1] is T1, human PYCR1 (Homo sapiens, UniProt P32322).
T1 sequence (P32322 1-300): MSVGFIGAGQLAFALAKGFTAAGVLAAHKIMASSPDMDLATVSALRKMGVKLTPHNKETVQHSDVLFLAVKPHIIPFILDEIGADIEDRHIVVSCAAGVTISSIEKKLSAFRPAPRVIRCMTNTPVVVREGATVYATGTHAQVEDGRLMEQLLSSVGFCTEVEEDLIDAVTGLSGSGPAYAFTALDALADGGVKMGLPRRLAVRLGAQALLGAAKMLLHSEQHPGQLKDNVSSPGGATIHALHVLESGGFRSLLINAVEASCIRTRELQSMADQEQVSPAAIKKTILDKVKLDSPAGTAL
Put plainly: biochemical. To be noted: for Ki: competitive with P5C, NADH fixed 175 μM; for kcat: kcat for L-P5C at fixed NADH 175 μM, global fit of the data set with this analog. How it is done:
(§1) Over two dozen proline analogs (Fig. 2) were screened using electron density from X-ray crystallography as the readout for binding to human PYCR1. […] Because the compounds bind in the P5C/proline site, the mechanism of inhibition was assumed to be competitive with P5C. Therefore, steady-state kinetic measurements were performed with L-P5C as the variable substrate (0-1000 μM) and NADH fixed (175 μM) (Fig. 3). For each compound, the data were fit globally to a competitive inhibition model (Equation 1) to obtain an inhibition constant, Ki.
B, THFA. C, CPC. D, T4C. E, T2C. F, NFLP. The data were measured in 50 mM Tris (pH 7.5) with 1 mM EDTA disodium salt while holding NADH fixed at 175 μM and varying D,L-P5C (0–2000 μM). The concentration of the substrate L-P5C was considered to be half the total D,L-P5C concentration added to the assays. Curves represent global fits of the data to a competitive inhibition model showing initial velocity in units of µM [NAD^+] s^−1 as a function of L-P5C concentration (µM).
A C-terminal truncation variant of human PYCR1, which includes residues 1–300 of the full-length 319-residue enzyme, was used for kinetics and X-ray crystallography ([18]). PYCR1 was overexpressed in Escherichia coli BL21 (DE3) competent cells and purified using methods similar to those previously reported ([18]). Harvested cells were lysed via sonication in a mixture containing DNase I, lysozyme, and 0.2 mM phenylmethylsulfonyl fluoride protease inhibitor, and then the insoluble material was removed via centrifugation at 16,000 rpm for 1 h at 4°C. The resulting lysate was purified by gravity-flow chromatography on a column containing Ni^2+–nitrilotriacetic acid resin (Qiagen) pre-equilibrated with binding buffer consisting of 50 mM HEPES, 300 mM NaCl, 10 mM imidazole, and 5% (w/v) glycerol at pH 7.8 (buffer A). The column was washed with buffer A supplemented with 30 mM imidazole, and then the bound protein was eluted with buffer A supplemented with 300 mM imidazole. Elution fractions containing PYCR1 were identified by SDS-PAGE and prepared for further purification by size-exclusion chromatography by dialyzing into 300 mM NaCl, 2% (w/v) glycerol, and 50 mM HEPES at pH 7.5. Size-exclusion chromatography was performed on a HiLoad 16/600 Superdex 200 column equilibrated with 50 mM HEPES, pH 7.8, 300 mM NaCl, and 5% (w/v) glycerol. Purified PYCR1 was concentrated to 8 mg/ml and stored at 4°C for subsequent crystallization trials.
Kinetic measurements were performed in a BioTek Epoch 2 microplate spectrophotometer using Corning 96-well UV-transparent microplates. Activity assays were performed by monitoring the consumption of NADH at 340 nm (ε340 = 6220 M^−1 cm^−1) using P5C as the substrate. D,L-P5C was synthesized as described previously ([45]), quantified using o-aminobenzaldehyde (o-AB), and stored in 1 M HCl at 4°C. Neutralization of D,L-P5C to pH 7.5 was performed immediately prior to assays using 1 M Tris (pH 7.5) and 6 M NaOH. The concentration of the substrate L-P5C was assumed to be half the total D,L-P5C concentration added to the assays.
The following microplate protocol was employed. Substrate mixtures containing P5C, NADH, EDTA, and Tris buffer were prepared in a deep well block for each P5C concentration. Mixtures containing enzyme and various concentrations of the inhibitor were prepared in microcentrifuge tubes and incubated on ice in buffer containing 50 mM HEPES pH 7.8, 300 mM NaCl, and 5% (w/v) glycerol. The final concentration of PYCR1 in the assay was 6.25 nM. Twenty μl of the enzyme-analog mixture was added to microplate wells using a single-channel pipette, and then the reaction was initiated by addition of 180 μl of the substrate mixtures using a multi-channel pipettor. The reaction traces were followed for 35 min.

Test [2] has as its target T1, human PYCR1. The experiment in a line: In crystallo screening: electron density as readout for binding (crystal soaking). Further details: includes residues 1–300 of the full-length 319-residue enzyme; inferred from the Ni-NTA purification; made in house; host or cells: Escherichia coli BL21 (DE3). To be noted: apo crystals soaked with 25–500 mM of the proline analog. The protocol: as §1
06594), D,L-thiazolidine-2-carboxylate (Sigma-Aldrich no. 467995), L-thiazolidine-4-carboxylate (Sigma-Aldrich no. T27502), 1,3-thiazolidine-2,4-dicarboxylate (Sigma-Aldrich no. CDS000186), dimethyl 1,3-thiazolidine-2,4-dicarboxylate (Sigma-Aldrich no. […] 287067), L-4-hydroxyproline methyl ester (hydrochloride) (Sigma-Aldrich no. 30681), cis-4-hydroxy-D-proline methyl ester (hydrochloride) (Sigma-Aldrich no. […] 441562), L-(+)-mandelic acid (Sigma-Aldrich no. 63460), sodium-L-lactate (Sigma-Aldrich no. 71718), D-cycloserine (Sigma-Aldrich no. C6880). The proline analogs were added to apo crystals during cryoprotection by soaking the crystals in the reservoir solution supplemented with cryoprotectant (PEG 200 for the PEG 3350 form; glycerol for the NaCl form) and then in the same cryobuffer supplemented with 25–500 mM of the proline analog. Following equilibration, the crystals were harvested and rapidly plunged into liquid nitrogen.
The complex of PYCR1 with THFA was obtained by soaking a C2 crystal (NaCl form) for 15 min in a cryo-buffer consisting of the reservoir solution (3 M NaCl and 0.1 M HEPES at pH 7.5–8.0) supplemented with 30% glycerol and 50 mM THFA, followed by flash-cooling in liquid nitrogen. Crystals of the NFLP complex were prepared by soaking P2_12_12 crystals in the reservoir solution (250 mM Li2SO4, 19% (w/v) PEG 3350, 0.1 M HEPES, pH 7.5) supplemented with 20% (v/v) PEG 200 and 100 mM NFLP. The complexes with L-T2C and L-T4C were prepared similarly, except the Li2SO4 concentration was reduced to 25 mM and 50 mM of either L-T4C or D,L-T2C was included.

Test [3] has as its system PYCR1. Set-up: method as in PMID 31362921. Particulars: reported IC50 against PYCR1; cited from earlier work.
Where [4] appears, read: Ki, 50 mM Tris pH 7.5, global fit.

Values joined by “and” are separate entries in the source; they are usually repeats but may differ in a detail not shown here. Identical values can stand only once.

For `O=C(O)C1CCCC1` [CPC, cyclopentanecarboxylate], the Ki in test [1] (Ki (estimated), rounded values) is > 1000 µM and 1000 µM; in test [1] (setting [4]), 1190 ± 61 µM. The kcat in test [1] turned out to be 35 ± 1 s⁻¹.

Consider `O=C(O)C1NCCS1` [L-T2C, L-thiazolidine-2-carboxylate], for which, in test [2], the “electron density evidence for binding (in words)” value (shortened to “electron density evidence”) is “Electron density evidence for binding was observed”. Moreover, the Ki was around 400 µM in test [1] (Ki (estimated), rounded values) and 438 ± 29 µM in test [1] (setting [4]). In test [1], the kcat stood at 37 ± 1 s⁻¹.

Turning to `O=C(O)[C@@H]1CCCO1` [THFA, (S)-(−)-tetrahydro-2-furoic acid], the “electron density evidence” value in test [2] is recorded as “Electron density evidence for binding was observed”. Moreover, the “inhibition of PYCR1 (in words)” value in test [1] is listed as “only negligibly inhibits PYCR1”. Further, the Ki in test [1] (Ki (estimated), rounded values) is > 1000 µM and 2000 µM; in test [1] (setting [4]) it was 2250 ± 121 µM. Besides, the kcat in test [1] was 69 ± 1 s⁻¹.

Regarding `C#CCN(C)Cc1ccccc1` [pargyline], the IC50 in test [3] is 200 µM.

`O=C(O)[C@@H]1CSCN1` [L-T4C, L-thiazolidine-4-carboxylate]: the “electron density evidence” value in test [2] is listed as “Electron density evidence for binding was observed”. Moreover, the Ki in test [1] (Ki (estimated), rounded values) was around 600 µM; in test [1] (setting [4]), 598 ± 39 µM. Moreover, in test [1], the turnover number (kcat) amounted to 54 ± 2 s⁻¹.

Consider `CC(=O)N1CCC[C@H]1C(=O)O` [N-acetyl L-proline], for which, in test [1], the “inhibition of PYCR1 (in words)” value is “did not inhibit PYCR1”.

As a reminder, the Ki is a dissociation constant, usually derived from enzyme kinetics or from competition with a known ligand. What is called kcat is the maximal rate divided by the concentration of active sites. A word on the IC50: it is the point on the concentration scale where inhibition reaches its midpoint.
